Where two headings read alike, the source gives them in different places.
Molecular target: TNFα (Homo sapiens, UniProt P01375)
Experiment: TNFα Induced HEK Blue Cellular Assay
Assay type: cell-based
Experimental: TNFα Induced HEK Blue Cellular Assay
Test articles were diluted in DMSO and serially diluted into 384 well assay plate (Corning 3765), at final concentrations ranging from […] to 0.5 nM. HEK Blue™ TNFα reporter cells were added at a final density of 10,000 cell per well in assay media [DMEM (Gibco, cat #21063-029), 10% fetal bovine serum (ExcelBio, cat #FND500), 1% Penicillin-Streptomycin (Solarbio, cat #P1400-100]. TNFα (R&D 210-TA-020/CF) was then added to the assay plate at a final concentration of 100 pg/ml. This plate was then incubated for 24 hrs at 37° C. and 5% CO2. Secreted alkaline phosphatase expression was then measured using QUANTI-Blue™ (Invivogen), according to manufacturer instructions and read on an Envision microplate reader at 620 nm.
Inhibition data for test compound over a range of concentration was plotted as percentage inhibition of the test compound (100%=maximum inhibition). IC50 values were determined after correcting for background [(sample read−mean of low control)/(mean of high control−mean of low control)] where by the low control is DMSO without stimulation and high control is DMSO with stimulation. The IC50 is defined as the concentration of test compound which produces 50% inhibition and was quantified using the 4 parameter logistic equation to fit the data.

[1] = HEK Blue TNFα reporter cells, TNFα 100 pg/ml, 24 hrs at 37° C., secreted alkaline phosphatase (QUANTI-Blue) read at 620 nm, read-out: IC50 value

Chain of TNFα (P01375 77-233 limits assumed): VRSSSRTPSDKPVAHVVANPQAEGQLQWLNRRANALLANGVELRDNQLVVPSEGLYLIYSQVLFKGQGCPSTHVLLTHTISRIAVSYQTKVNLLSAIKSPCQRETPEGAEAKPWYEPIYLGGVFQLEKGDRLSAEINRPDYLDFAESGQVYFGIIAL

Row | Structure (SMILES) | IC50 [1] | IC50
1 | [2H]C([2H])([2H])N1C(=O)c2cccc(OC(F)F)c2[C@H]2C[C@@H]1c1nc3ccc(-c4ccc(CP(=O)(OC)OC)c(F)c4)cc3n12 [Example 136, dimethyl (4-((7R,14R)-1-(difluoromethoxy)-6-(methyl-d3)-5-oxo-5,6,7,14-tetrahydro-7,14-methanobenzo[f]benzo[4,5]imidazo[1,2-a][1,4]diazocin-11-yl)-2-fluorobenzyl)phosphonate] | – | < 100 nM
2 | [2H]C([2H])([2H])N1C(=O)c2cccc(OC(F)F)c2[C@H]2C[C@@H]1c1nc3ccc(-c4cc(F)c(P(C)(C)=O)cc4F)nc3n12 [Example 142, (7R,14R)-1-(difluoromethoxy)-11-(4-(dimethylphosphoryl)-2,5-difluorophenyl)-6-(methyl-d3)-6,7-dihydro-7,14-methanobenzo[f]pyrido[3′,2′:4,5]imidazo[1,2-a][1,4]diazocin-5(14H)-one] | < 100 nM | –
3 | CN1C(=O)c2cccc(OC(F)F)c2[C@H]2C[C@@H]1c1nc3cc(F)c(-c4ccc(P(C)(C)=O)cc4F)cc3n12 [Example 58, (1R,11R)-18-(difluoromethoxy)-5-[4-(dimethylphosphoryl)-2-fluorophenyl]-6-fluoro-12-methyl-2,9,12-triazapentacyclo[9.8.1.0^{2,10}.0^{3,8}.0^{14,19}]icosa-3(8),4,6,9,14(19),15,17-heptaen-13-one] | < 100 nM | –
4 | [2H]C([2H])([2H])N1C(=O)c2cccc(OC(F)F)c2[C@H]2C[C@@H]1c1nc3ccc(-c4ccc(C(C)(O)P(C)(C)=O)cc4)cc3n12 (single isomer, unassigned) [Example 110, (7R,14R)-1-(difluoromethoxy)-11-(4-((S or R)-1-(dimethylphosphoryl)-1-hydroxyethyl)phenyl)-6-(methyl-d3)-6,7-dihydro-7,14-methanobenzo[f]benzo[4,5]imidazo[1,2-a][1,4]diazocin-5(14H)-one] | < 100 nM | –
5 | CN1C(=O)c2cccc(OC(F)F)c2[C@H]2C[C@@H]1c1nc3ccc(-c4ccc(P5(=O)CCCC5)nc4)cc3n12 [Example 5, (1R,11R)-18-(difluoromethoxy)-12-methyl-5-[6-(1-oxo-1lambda5-phospholan-1-yl)pyridin-3-yl]-2,9,12-triazapentacyclo[9.8.1.0^{2,10}.0^{3,8}.0^{14,19}]icosa-3(8),4,6,9,14(19),15,17-heptaen-13-one] | < 100 nM | –
6 | CCN1C(=O)c2cccc(OC(F)F)c2[C@H]2C[C@@H]1c1nc3ccc(-c4ccc(P(C)(C)=O)nc4)cc3n12 [Example 19, (1R,11R)-18-(difluoromethoxy)-5-[6-(dimethylphosphoryl)pyridin-3-yl]-12-ethyl-2,9,12-triazapentacyclo[9.8.1.0^{2,10}.0^{3,8}.0^{14,19}]icosa-3(8),4,6,9,14(19),15,17-heptaen-13-one] | < 100 nM | –
7 | [2H]C([2H])([2H])N1C(=O)c2cccc(OC(F)F)c2[C@H]2C[C@@H]1c1nc3ccc(-c4cc(F)c(CP(C)(C)=O)cc4C)cc3n12 [Example 108, (7R,14R)-1-(difluoromethoxy)-11-(4-((dimethylphosphoryl)methyl)-5-fluoro-2-methylphenyl)-6-(methyl-d3)-6,7-dihydro-7,14-methanobenzo[f]benzo[4,5]imidazo[1,2-a][1,4]diazocin-5(14H)-one] | < 100 nM | –
8 | CP(C)(=O)COc1ccc(-c2ccc3nc4n(c3c2)[C@@H]2C[C@H]4NC(=O)c3cccc(OC(F)F)c32)cn1 [Example 11, (1R,11R)-18-(difluoromethoxy)-5-{6-[(dimethylphosphoryl)methoxy]pyridin-3-yl}-2,9,12-triazapentacyclo[9.8.1.0^{2,10}.0^{3,8}.0^{14,19}]icosa-3(8),4,6,9,14(19),15,17-heptaen-13-one] | 1000 to 10000 nM | –
9 | [2H]C([2H])([2H])N1C(=O)c2cccc(OC(F)F)c2[C@H]2C[C@@H]1c1nc3ccc(-c4cc(F)c(P(C)(C)=O)cc4F)cc3n12 [Example 54, (7R,14R)-1-(difluoromethoxy)-11-(4-(dimethylphosphoryl)-2,5-difluorophenyl)-6-(methyl-d3)-6,7-dihydro-7,14-methanobenzo[f]benzo[4,5]imidazo[1,2-a][1,4]diazocin-5(14H)-one] | < 100 nM | –
10 | [2H]C([2H])([2H])N1C(=O)c2cccc(OC(F)F)c2[C@H]2C[C@@H]1c1nc3cc(F)c(-c4ccc(P(C)(C)=O)c(F)c4)cc3n12 [Example 59, (7R,14R)-1-(difluoromethoxy)-11-(4-(dimethylphosphoryl)-3-fluorophenyl)-10-fluoro-6-(methyl-d3)-6,7-dihydro-7,14-methanobenzo[f]benzo[4,5]imidazo[1,2-a][1,4]diazocin-5(14H)-one] | < 100 nM | –
11 | Cc1cc(P(C)(C)=O)ccc1-c1ccc2nc3n(c2c1)[C@@H]1C[C@H]3NC(=O)c2cccc(OC(F)F)c21 [Example 32, (1R,11R)-18-(difluoromethoxy)-5-[4-(dimethylphosphoryl)-2-methylphenyl]-2,9,12-triazapentacyclo[9.8.1.0^{2,10}.0^{3,8}.0^{14,19}]icosa-3(8),4,6,9,14(19),15,17-heptaen-13-one] | < 100 nM | –

Continued, in another order:

Row | IC50 [1] | Structure (SMILES) | IC50
12 | < 100 nM | CN1C(=O)c2cccc(OC(F)F)c2[C@H]2C[C@@H]1c1nc3ccc(-c4ccc(P5(=O)CCOCC5)nc4)cc3n12 [Example 6, (1R,11R)-18-(difluoromethoxy)-12-methyl-5-[6-(4-oxo-1,4lambda5-oxaphosphinan-4-yl)pyridin-3-yl]-2,9,12-triazapentacyclo[9.8.1.0^{2,10}.0^{3,8}.0^{14,19}]icosa-3(8),4,6,9,14(19),15,17-heptaen-13-one] | –
13 | < 100 nM | [2H]C([2H])([2H])N1C(=O)c2cccc(OC(F)F)c2[C@H]2C[C@@H]1c1nc3ccc(-c4ccc(P(C)(C)=O)c(C)c4)cc3n12 [Example 105, (7R,14R)-1-(difluoromethoxy)-11-(4-(dimethylphosphoryl)-3-methylphenyl)-6-(methyl-d3)-6,7-dihydro-7,14-methanobenzo[f]benzo[4,5]imidazo[1,2-a][1,4]diazocin-5(14H)-one] | –
14 | < 100 nM | [2H]C([2H])([2H])N1C(=O)c2cccc(OC(F)F)c2[C@H]2C[C@@H]1c1nc3ccc(-c4ccc(C(C)(C)P(C)(C)=O)nc4)cc3n12 [Example 120, (7R,14R)-1-(difluoromethoxy)-11-(6-(2-(dimethylphosphoryl)propan-2-yl)pyridin-3-yl)-6-(methyl-d3)-6,7-dihydro-7,14-methanobenzo[f]benzo[4,5]imidazo[1,2-a][1,4]diazocin-5(14H)-one] | –
15 | < 100 nM | [2H]C([2H])([2H])N1C(=O)c2cccc(OC(F)F)c2[C@H]2C[C@@H]1c1nc3ccc(-c4ccc(P(C)(C)=O)c(C)c4F)cc3n12 [Example 107, (7R,14R)-1-(difluoromethoxy)-11-(4-(dimethylphosphoryl)-2-fluoro-3-methylphenyl)-6-(methyl-d3)-6,7-dihydro-7,14-methanobenzo[f]benzo[4,5]imidazo[1,2-a][1,4]diazocin-5(14H)-one] | –
16 | < 100 nM | [2H]C([2H])([2H])N1C(=O)c2cccc(OC(F)F)c2[C@H]2C[C@@H]1c1nc3ccc(-c4cc(F)c(C(C)P(C)(C)=O)cc4C)cc3n12 (single isomer, unassigned) [Example 119, (7R,14R)-1-(difluoromethoxy)-11-(4-((S or R)-1-(dimethylphosphoryl)ethyl)-5-fluoro-2-methylphenyl)-6-(methyl-d3)-6,7-dihydro-7,14-methanobenzo[f]benzo[4,5]imidazo[1,2-a][1,4]diazocin-5(14H)-one] | –
17 | < 100 nM | CN1C(=O)c2cccc(OC(F)F)c2[C@H]2C[C@@H]1c1nc3ccc(-c4ccc(OCCP(C)(C)=O)nc4)cc3n12 [Example 39, (1R,11R)-18-(difluoromethoxy)-5-{6-[2-(dimethylphosphoryl)ethoxy]pyridin-3-yl}-12-methyl-2,9,12-triazapentacyclo[9.8.1.0^{2,10}.0^{3,8}.0^{14,19}]icosa-3(8),4,6,9,14(19),15,17-heptaen-13-one] | –
18 | < 100 nM | CN1C(=O)c2cccc(OC(F)F)c2[C@H]2C[C@@H]1c1nc3ccc(-c4cc(F)c(CP(C)(C)=O)cc4F)cc3n12 [Example 73, (7R,14R)-1-(difluoromethoxy)-11-(4-((dimethylphosphoryl)methyl)-2,5-difluorophenyl)-6-methyl-6,7-dihydro-7,14-methanobenzo[f]benzo[4,5]imidazo[1,2-a][1,4]diazocin-5(14H)-one] | –
19 | < 100 nM | CCN1C(=O)c2cccc(OC(F)F)c2[C@H]2C[C@@H]1c1nc3ccc(-c4ccc(P(C)(C)=O)cc4)cc3n12 [Example 49, (1R,11R)-18-(difluoromethoxy)-5-[4-(dimethylphosphoryl)phenyl]-12-ethyl-2,9,12-triazapentacyclo[9.8.1.0^{2,10}.0^{3,8}.0^{14,19}]icosa-3(8),4,6,9,14(19),15,17-heptaen-13-one] | –
20 | < 100 nM | CCP(=O)(CC)c1ccc(-c2ccc3nc4n(c3c2)[C@@H]2C[C@H]4NC(=O)c3cccc(OC(F)F)c32)cn1 [Example 137, (7R,14R)-11-(6-(diethylphosphoryl)pyridin-3-yl)-1-(difluoromethoxy)-6,7-dihydro-7,14-methanobenzo[f]benzo[4,5]imidazo[1,2-a][1,4]diazocin-5(14H)-one] | –
